Laboratory results from PubChem BioAssay (NCI).
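1) Cells in 96-well plates. 2) Compound, 48 h, 5 concentrations. 3) Linear interpolation between surrounding doses. 4) Unreached endpoint = highest concentration. Abbreviation: GI50, concentration required for 50% inhibition of growth. TGI denotes the concentration required for complete inhibition of growth.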

Legend:
Assay in all cases: growth of human tumour cells (NCI), 48 h
[1] = tested on: OVCAR-3 ovarian
[2] = tested on: NCI-H23 lung
[3] = tested on: EKVX NSCLC
[4] = tested on: RPMI-8226 leukemia
[5] = tested on: MOLT-4 leukemia
[6] = tested on: SK-OV-3 ovarian
[7] = tested on: HCC-2998 colon
[8] = tested on: RXF 393 renal
[9] = tested on: CCRF-CEM leukemia
[10] = tested on: SR leukemia
[11] = tested on: TK-10 renal
[12] = tested on: OVCAR-4 ovarian
[13] = tested on: K-562 leukemia
[14] = tested on: M14 melanoma
[15] = tested on: HS 578T breast
[16] = tested on: HT29 colon
[17] = tested on: MCF7 breast
[18] = tested on: HL-60(TB) leukemia
[19] = tested on: SNB-75 CNS
[20] = tested on: SF-295 CNS
[21] = tested on: MDA-MB-468 breast
[22] = tested on: MDA-MB-231 breast
[23] = tested on: HCT-15 colon
[24] = tested on: NCI-H460 lung
[25] = tested on: LOX IMVI melanoma
[26] = tested on: A498 renal
[27] = tested on: HOP-92 NSCLC
[28] = tested on: CAKI-1 renal
[29] = tested on: SF-539 CNS
[30] = tested on: SK-MEL-28 melanoma

SMILES: COP(=O)(CC(F)(F)C(F)(F)F)OC
- GI50 [1]: 3.44 µM
- TGI [1]: 12.1 µM
- GI50 [2]: 7.36 µM
- TGI [2]: 21.4 µM
- GI50 [3]: 2.71 µM
- TGI [3]: 8.33 µM
- GI50 [4]: 3.07 µM
- TGI [4]: 8.49 µM
- GI50 [5]: 3.06 µM
- TGI [5]: 10.8 µM
- GI50 [6]: 30.1 µM
- TGI [6]: 76.1 µM
- GI50 [7]: 13.6 µM
- TGI [7]: 27 µM
- GI50 [8]: 1.33 µM
- TGI [8]: 2.92 µM
- GI50 [9]: 2.43 µM
- TGI [9]: 8.68 µM
- GI50 [10]: 3.15 µM
- TGI [10]: 12.2 µM
- GI50 [11]: 3.08 µM
- TGI [11]: 7.36 µM
- GI50 [12]: 14 µM
- TGI [12]: 30 µM
- GI50 [13]: 2.93 µM
- TGI [13]: 14.3 µM
- GI50 [14]: 1.8 µM
- TGI [14]: 3.77 µM
- GI50 [15]: 15.1 µM
- TGI [15]: 79.4 µM
- GI50 [16]: 2.46 µM
- TGI [16]: 5.17 µM
- GI50 [17]: 2.05 µM
- TGI [17]: 10.5 µM
- GI50 [18]: 2.15 µM
- TGI [18]: 5.33 µM
- GI50 [19]: 4.93 µM
- TGI [19]: 55.3 µM
- GI50 [20]: 16.5 µM
- TGI [20]: 31.8 µM
- GI50 [21]: 1.35 µM
- TGI [21]: 3.16 µM
- GI50 [22]: 8.95 µM
- TGI [22]: 22.9 µM
- GI50 [23]: 1.76 µM
- TGI [23]: 4.93 µM
- GI50 [24]: 18 µM
- TGI [24]: 38.1 µM
- GI50 [25]: 1.7 µM
- TGI [25]: 3.54 µM
- GI50 [26]: 22.1 µM
- TGI [26]: 41.1 µM
- GI50 [27]: 3.89 µM
- TGI [27]: 13.1 µM
- GI50 [28]: 2.6 µM
- TGI [28]: 6.49 µM
- GI50 [29]: 2.55 µM
- TGI [29]: 7.21 µM
- GI50 [30]: 1.87 µM
